Laboratory results as given in patent US5594001A, “Polycyclic systems, and derivatives thereof, as neurotransmitter release enhancers useful in the treatment of cognitive disorders” (The DuPont Merck Pharmaceutical Company, priority 1994, dated 1997).
pEC50: −log10 of the molar value.

Assays:
[1] = tested on: memory disruption induced by hypoxia, male CD rats; test: Rat Passive Avoidance (PA) Hypoxia Induced Amnesia; type: in vivo, rat (male CD); settings: Table II; SC; median retention latency vs vehicle
Description: Rat Passive Avoidance (PA) Hypoxia Induced Amnesia:
Unfasted male CD rats, weighing between 165-210 grams, were trained in a PA apparatus using the following procedure: rats were placed in the clear side of the two compartment chamber and allowed 90 seconds to enter the dark compartment. Ten seconds after entering the dark chamber, a 3 second footshock (1.0 mA) was applied to the grid floor followed by an additional 10 second delay, and another 3 second footshock was applied. Retentions were tested 4 hours later. The rats were allowed 300 seconds to enter the dark compartment; time was taken. Memory disruption was induced by exposing the rats to a gas mixture containing 6.5% oxygen supplemented with nitrogen for 30 minutes before passive avoidance training. Doses of the test compound were administered (0.1 ml/100 g, SC.) relative to time of PA training.

[2] = tested on: stimulus-induced acetylcholine release, slices from the parietal cortex; test: Neurotransmitter (ACh) release assay, rat cortex slices, K+ stimulated; type: cell-based, rat (male Wistar); settings: for activation at 10 µM: Table II, % increase of drug-induced ACh release; for pEC50: Table III
Description: The neurotransmitter release activities of the compounds of this invention were determined using standard biochemical assay procedures for example, the neurotransmitter release assay as described below.
Neurotransmitter release assay.
The neurotransmitter (Ach) release activities of the compounds of this invention were determined by the assay as described by Nickolson, et al., Drug Development Research, (1990) 19: 285-300, a modification of the procedure described by Mulder, et al., Brain Res., (1974) 70: 372.
Male Wistar rats (Charies River) weighing 175-200 grams were used. Rats were decapitated and brains were dissected immediately. Slices (0.3 mm thick) from the parietal cortex were prepared (approximately 100 mg wet weight) and were incubated in 10 ml KrebsRinger medium (KR) containing NaCl (116 mM), KCl (3 mM), CaCl2 (1.3 mM), MgCl2 (1.2 mM), KH2 PO4 (1.2 mM), Na2 SO4 (1.2 mM), NaHCO3 (25.0 mM), and glucose (11.0 mM), to which was added 10 uCi ^3 H-choline (specific activity approximately 35 Ci/mM; NEN) and […] unlabeled choline to give a final concentration of one micromole. The brain preparations were incubated for 30 min. at 37° C. under a steady flow of 95% O2 /5% CO2. Under these conditions, part of the radioactive choline taken up by the preparation was converted into radioactive acetylcholine (ACh) by the cholinergic nerve endings stored in synaptic vesicles, and released upon depolarization by high potassium ion (K+) containing media.
After labelling of the ACh stores, the slices were washed three times with non-radioactive KR medium and transferred to a superfusion apparatus to measure the drug effects on ACh release. The superfusion apparatus consisted of 10 thermostated glass columns of 5 mm diameter that were provided with GF/F glass fiber filters to support the slices (approximately 10 mg tissue/column). Superfusion was carried out in KR-medium (0.3 ml/min.) containing […] hemicholine-3 (HC-3). The HC-3 prevents the reuptake of choline formed during the superfusion from phospholipids and released ACh, which would be converted into unlabeled ACh and released in preference to the preformed labeled ACh. The medium was delivered by a 25-channel peristaltic pump (Ismatec by Brinkman) and warmed to 37° C. in a thermostated stainless steel coil before entering the superfusion column. Each column was provided with a 4-way slider valve (Beckmann instruments) which allowed rapid change of low to high K+/KR-medium, and with two 10-channel 3-way valves that were used to change from drug-free to drug-containing low and high K+/KR-medium. After 15 min. of washout of non-specifically bound radioactivity, collection of 4 min. fractions was initiated. After three 4 min. collections, the original medium was changed to a KR-medium in which the KCl concentration had been increased to 25 mM (high K+ medium) (S1). Depolarization-induced stimulation of release by high K+/KR-medium lasted for 4 min. Drug free low and high K+/KR-media were then substituted by drug- and vehicle-containing low- and high-K+/KR-medium, and superfusion was continued for three 4 min. collections with low K+/KR-medium, one 4 min. collection with high K+/KR-medium (s2), and two 4 min. collections with low K+/KR-medium.
Drug was added to the media by 100-fold dilutions of appropriate concentrations of the drug (in 0.9% saline) with either low- or high-K+/KR-medium. For comparative purposes, linopirdine was also run.
All superfusion fractions were collected in liquid scintillation counting vials. After superfusion, the slices were removed from the superfusion columns and extracted with 1.0 ml of 0.1N HCl. Liquiscint (NEN) counting fluid (12 ml) was added to superfusion fractions and extracts, and the samples were counted in a Packard Tricarb Liquid Scintillation Counter. No corrections were made for quenching. […]

[3] = tested on: ACh level in the rat hippocampus; test: Microdialysis, ACh levels in the rat hippocampus in vivo; set-up: species or system rat (male Wistar); settings: Table IV
Description: Male Wistar Rats are anaesthetized and guide cannulas stereotaxically implanted into the brain at the level of the dorsal hippocampus. Following a minimum recovery period of 72 h, dialysis probes (0.5 mm diameter, 4.0 mm long, from BAS) are inserted into the hippocampus through the guide cannulas. The probes are perfused at a rate of 2 μl/min with artificial cerebrospinal fluid containing 100 μM physostigmine sulfate (a cholinesterase inhibitor). Rats are allowed to acclimate for 2 hours prior to sample collection. Dialysate samples are collected every 20 min (40 μl) and immediately injected onto a high performance liquid chromatograph equipped for electrochemical detection (HPLC-EC) of acetylcholine (ACh). Following collection of 3 baseline samples, drugs or vehicle control are administered in 0.01 ml/g body weight and dialysate samples are collected for an additional 3 h. The ACh peak heights of the 3 samples prior to drug administration are averaged together to determine baseline ACh levels. ACh peak heights post drug administration are measured and used to determine percent change over baseline ACh levels. At the end of experiments, probe placement is verified histologically.
ACh is separated by reverse phase chromatography (Hamilton PRP-1 column 150×4.5 mm) and converted to acetate, betaine and hydrogen peroxide on an immobilized enzyme reactor column (BAS). Hydrogen peroxide is then detected electrochemically. Mobile phase for the chromatography consists of 0.2M Na2 HPO4, 0.1 mM EDTA, 0.5 mM SOS, 0.9 mM TMA.Cl, with pH adjusted to 8.0 with phosphoric acid and […] Kathon CG (ESA) added to each liter of mobile phase to retard bacterial growth.
FIGS. 1 and 2 show the effects of fluorine substitution to the pendant groups of the anthrone and azafluorene core series on the ability of compounds to increase the level of ACh in the rat hippocampus in vivo. All compounds were tested at 5 mg/kg except Ex. No 64 which was administered at 1 mg/kg. […] This was observed even though the compound was administered by a route (i.p.) which should lead to greater bioavailability than the oral route. Example 68 of the present invention, the bis-fluorinated analog of Example 611 or U.S. Pat. No. 5,173,489, on the other hand, led to a 2-fold increase in ACh levels which was maintained for over 1 hour (FIG. 1). The anthrone compound Ex. No. 440 of U.S. Pat. No. 5,173,489, at 5 mg/kg, led to a peak ACh level of 72% over baseline (FIG. 2). Ex. No. 64 of the present invention, which is the bis-fluoro analog of Ex. No. 440 of U.S. Pat. No. 5,173,489, at 1 mg/kg, led to a delayed increase in ACh levels reaching a peak of over 100% above baseline (FIG. 2). In contrast to the observed effects of Example 440 of U.S. Pat. No. 5,173,489, the increase in ACh level after administration of Example 64 of the present invention was maintained for the entire duration of testing (3 hours).

[4] = 5 mg/kg, vehicle methocel, NSP = no significant points

Row | SMILES | PA Hypoxia [1] | activation at 10 µM [2] [%] | AUC, Area % under the curve ([3]; 5 mg/kg, vehicle methocel) [%] | Peak, maximal % increase of ACh release over baseline ([3]; 5 mg/kg, vehicle methocel) [%] | time of Peak after administration ([3]; 5 mg/kg, vehicle methocel) [min] | Duration, minutes of release above statistical significance [3, 4] | pEC50 [2] | AUC, Area % under the curve ([3]; 10 mg/kg, vehicle methocel) [%] | Duration, minutes of release above statistical significance ([3]; 10 mg/kg, vehicle methocel) [min] | Peak, maximal % increase of ACh release over baseline ([3]; 10 mg/kg, vehicle methocel) [%] | time of Peak after administration ([3]; 10 mg/kg, vehicle methocel) [min] | also measured
1 | c1ccc(Cn2ncc3c2-c2ccccc2C3(Cc2ccncc2)Cc2ccncc2)cc1 [Example 14, 1,4-Dihydro-1-(phenylmethyl)-4,4-bis(4-pyridinylmethyl)indeno[1,2-C]pyrazol] | Active | 533 |  |  |  |  |  |  |  |  |  | 
2 | Fc1cc(CC2(Cc3ccnc(F)c3)c3cccnc3-c3cccnc32)ccn1 [Example 75, 9,9-Bis((2-fluoro-4-pyridinyl)methyl)-cyclopenta[1,2-b:3,4-b']dipyridine] |  |  | 302 ± 35 | 67 ± 12 | 20 | 60 min | 5.92 |  |  |  |  | 
3 | Fc1cc(CC2(Cc3ccnc(F)c3)c3ccccc3-c3nc(-c4ccccc4)ncc32)ccn1 [Example 76, 5,5-Bis((2-fluoro-4-pyridinyl)methyl)-2-phenyl-5H-indeno[1,2-d]pyrimidine] |  |  | 96 ± 67 | 39 ± 25 | 20 | NSP | 6.18 |  |  |  |  | 
4 | Fc1cc(CC2(Cc3ccnc(F)c3)c3ccccc3-c3ncncc32)ccn1 [Example 81, 5,5-Bis((2-fluoro-4-pyridinyl)methyl)-5H-indeno-[1,2-d]pyrimidine] |  |  | 250 ± 68 | 53 ± 17 | 60 | 100 min | 6.19 |  |  |  |  | 
5 | Fc1cc(CC2(Cc3ccnc(F)c3)c3cccnc3-c3ncccc32)ccn1 [Example 97, 5,5-Bis((2-fluoro-4-pyridinyl)methyl)-5H-cyclopenta[2,1-b:3,4-b']dipyridine] |  |  |  |  |  |  | 5.58 | 649 ± 188 | 120 | 102 ± 29 | 100 | 
6 | O=C1N(c2ccccc2)c2ccccc2C1(Cc1ccncc1)Cc1ccncc1 [linopirdine, 3,3-bis-(4-pyridinylmethyl)-1-phenylindolin-2-one, reference compound] | Active | 408 |  |  |  |  |  | 212 ± 61 | 100 | 62 ± 15 | 40 | AUC, Area % under the curve ([3]; 5 mg/kg, vehicle water): 83 ± 73%; Peak, maximal % increase of ACh release over baseline ([3]; 5 mg/kg, vehicle water): 50 ± 16%; time of Peak after administration ([3]; 5 mg/kg, vehicle water): 40 min; Duration, minutes of release above statistical significance ([3]; 5 mg/kg, vehicle water, NSP = no significant points): 20 min; AUC, Area % under the curve ([3]; 10 mg/kg, vehicle water): 191 ± 68%; Duration, minutes of release above statistical significance ([3]; 10 mg/kg, vehicle water): 60 min; Peak, maximal % increase of ACh release over baseline ([3]; 10 mg/kg, vehicle water): 56 ± 7%; time of Peak after administration ([3]; 10 mg/kg, vehicle water): 40 min; AUC, Area % under the curve ([3]; 20 mg/kg, vehicle methocel): 600 ± 71%; Duration, minutes of release above statistical significance ([3]; 20 mg/kg, vehicle methocel): 140 min; Peak, maximal % increase of ACh release over baseline ([3]; 20 mg/kg, vehicle methocel): 117 ± 36%; time of Peak after administration ([3]; 20 mg/kg, vehicle methocel): 40 min; AUC, Area % under the curve ([3]; 20 mg/kg, vehicle water): 315 ± 108%; Duration, minutes of release above statistical significance ([3]; 20 mg/kg, vehicle water): 100 min; Peak, maximal % increase of ACh release over baseline ([3]; 20 mg/kg, vehicle water): 68 ± 26%; time of Peak after administration ([3]; 20 mg/kg, vehicle water): 100 min
